According to PMC8231342, “Potency of bisresorcinol from Heliciopsis terminalis on skin aging: in vitro bioactivities and molecular interactions” (PeerJ, 2021):
Values joined by “and” are separate entries in the source; they are usually repeats but may differ in a detail not shown here. Identical values can stand only once. Like-named read-outs stand apart in the source and are kept apart here. Values belong to the compound of their own block, whether it stands above or below them.

How the values were obtained:
Type in all cases: biochemical
[1] = test system: Collagenase from Clostridium histolyticum (EC.3.4.24.3); assay: Collagenase inhibition assay (fluorogenic peptide substrate)
Description: The recent anti-collagenase assay was modified from that previously described by [Widyowati et al. (2016)]. In brief, 50 mmol L^−1 tricine buffer pH 7.5 supplemented with 400 mmol L^−1 NaCl and 10 mmol L^−1 CaCl2 was used as the buffering diluent. Collagenase from Clostridium histolyticum (EC.3.4.24.3) was dissolved in the buffer to a concentration of 1 mg L^−1. The enzyme substrate, MOCAc-PRO-Leu-Gly-Leu-A2pr (Dnp)-Ala-Arg-NH2, was prior dissolved in DMSO and subsequently diluted in the buffer to a concentration of 1 mmol L^−1. A sample dissolved in DMSO was diluted to different concentrations by using the buffer. A 2-µl sample solution was incubated with 100 µl enzyme solution at 37 °C for 10 min. Then, a 50-µl substrate was added and thoroughly mixed. Fluorescence emission (F) at 405 nm was immediately recorded and continually monitored for 30 min using a wavelength of 320 nm for excitation. Caffeic acid was used as a position control (Fig. 1). Negative control was performed with water. The percent inhibition (%) was calculated from the equation below:
%Inhibition={1–(Fsam,30–Fsam,0)÷(Fcont,30–Fcont,0)}×100.

[2] = target: porcine pancreatic elastase (EC.3.4.21.36) (Sus scrofa, UniProt P00772); assay: Elastase inhibition assay (SANA substrate)
Description: The assay according to [Abhijit & Manjushree (2010)] was applied with some modifications. Briefly, the buffer system was 0.2 mM Tris-HCl buffer (pH 8.0). A solution of 1 µg mL^−1 porcine pancreatic elastase (EC.3.4.21.36) was prepared in sterile water. The enzyme substrate, N-Succinyl-Ala-Ala-Ala-p-nitroanilide (SANA), was dissolved in the buffer to a concentration of 80 mmol L^−1. A sample dissolved in DMSO was diluted to various concentrations by using the buffer. A 100-µl sample solution was mixed with 50 µl enzyme solution and incubated for 15 min. After that 50 µl of the enzyme substrate solution was added and thoroughly mixed. The OD410 was measured immediately (0 min) and after incubation overnight (o/n) at 37 °C by using a microplate reader. Ursolic acid was used as a positive control (Fig. 1), and water was used as a negative control. The percentage inhibition (%) was calculated by the following equation:
%Inhibition={1–[(Asam,o/n–Asam,0)÷(Acont,o/n–Acont,0)]}×100.

[3] = target: Mushroom tyrosinase (EC.1.14.18.1) (Agaricus bisporus, UniProt C7FF04); assay: Tyrosinase inhibition assay (L-tyrosine substrate); conditions: for inhibition at 10 µg/mL: conc 10 ug/ml
Description: In brief, the assay was carried out in 0.05 mol L^−1 phosphate buffer pH 6.8. Mushroom tyrosinase (EC.1.14.18.1) was dissolved in the buffer to a concentration of 100 units mL^−1. L-tyrosine, an enzyme substrate, was prepared to a concentration of 0.25 mg mL^−1 in the buffer. […] Into a well of 96-well plates, 10 µl sample and 40 µl L-tyrosine solution were mixed and incubated for 10 min at room temperature. After that 50 µl enzyme solution was inoculated and mixed thoroughly. The reaction was stopped afterward by incubation on ice for 1 min. […] The percentage inhibition (%) was calculated by the equation as follows:
%Inhibition={1–(Asam,10–Asam,0)÷(Acont,10–Acont,0)}×100.

[4] = individual replicates, read-out: ic50 collagenase, N1-N3
[5] = mean ± SEM, triplicate, read-out: IC50 collagenase inhibition
[6] = individual replicates, read-out: % inhibition elastase, replicates 1-3
[7] = read-out: % inhibition elastase, ave
[8] = individual replicates, read-out: ic50 elastase, N1-N3 (converted)
[9] = mean ± SEM, triplicate, read-out: IC50 elastase inhibition
[10] = individual replicates, read-out: % inhibition tyrosinase, replicates 1-3
[11] = read-out: % inhibition tyrosinase, ave

porcine pancreatic elastase (EC.3.4.21.36), sequence (P00772 27-266): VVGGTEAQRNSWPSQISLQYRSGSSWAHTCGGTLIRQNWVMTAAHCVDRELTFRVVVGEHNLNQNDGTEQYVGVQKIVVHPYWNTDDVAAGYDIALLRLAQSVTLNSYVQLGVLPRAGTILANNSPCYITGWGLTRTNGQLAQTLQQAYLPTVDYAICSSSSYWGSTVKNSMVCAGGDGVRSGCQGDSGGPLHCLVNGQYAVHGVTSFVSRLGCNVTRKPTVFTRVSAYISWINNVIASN
Mushroom tyrosinase (EC.1.14.18.1), sequence (C7FF04 2-392): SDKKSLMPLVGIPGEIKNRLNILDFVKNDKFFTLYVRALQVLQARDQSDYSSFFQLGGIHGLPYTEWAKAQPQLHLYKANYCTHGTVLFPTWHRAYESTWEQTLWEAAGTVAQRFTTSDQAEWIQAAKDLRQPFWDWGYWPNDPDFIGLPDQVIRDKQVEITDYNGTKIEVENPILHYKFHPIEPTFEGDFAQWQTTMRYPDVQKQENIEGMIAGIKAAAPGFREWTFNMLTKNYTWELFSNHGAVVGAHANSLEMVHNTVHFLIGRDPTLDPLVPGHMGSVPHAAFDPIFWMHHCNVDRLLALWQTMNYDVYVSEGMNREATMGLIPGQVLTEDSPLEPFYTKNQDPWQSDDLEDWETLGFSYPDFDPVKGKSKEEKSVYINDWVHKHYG

SMILES: Oc1cc(O)cc(CCCCCCCC=CCCCCCCCc2cc(O)cc(O)c2)c1 [Bisresorcinol, (8′Z)-3,5-dihydroxy-1-[16′-(3″,5″-dihydroxyphenyl)-8′-hexadecen-1′-yl]benzene]
% inhibition collagenase, ave ([1]; 56 uM): 0.0%
% inhibition collagenase, ave ([1]; 113 uM): 33.0%
% inhibition collagenase, ave ([1]; 226 uM): 81.31% and 81.3%
ic50 collagenase, ave ([1]; average of N1-N3): 69.5 µg/mL
% inhibition collagenase, ave ([1]; conc 25 ug/ml): 0.00%
% inhibition collagenase, N1-N3 ([1]; conc 25 ug/ml, individual replicates): 0.00% and 0% (2×)
% inhibition collagenase, ave ([1]; conc 50 ug/ml): 32.97%
% inhibition collagenase, N1-N3 ([1]; conc 50 ug/ml, individual replicates): 38.51% and 27.91% and 32.48%
% inhibition collagenase, ave ([1]; conc 100 ug/ml): 81.31%
% inhibition collagenase, N1-N3 ([1]; conc 100 ug/ml, individual replicates): 82.28% and 81.54% and 80.12%
ic50 collagenase, N1-N3 ([1]; individual replicates): 70.18 µg/mL and 67.47 µg/mL and 70.79 µg/mL
IC50 [1, 4]: 158 µM and 152 µM and 160 µM
IC50 [1, 5]: 157 ± 2.3 µM
inhibition at 23 µM ([2]; 23 uM, read-out: % inhibition elastase, ave): 20.8%
inhibition at 34 µM [2, 6]: 46.5%
inhibition at 34 µM [2, 7]: 34.7%
inhibition at 45 µM [2, 6]: 99.6%
inhibition at 45 µM [2, 7]: 99.7%
inhibition at 50 µM ([2]; at 50 µmol L^−1, read-out: maximum inhibition of elastase): 100%
IC50 ([2]; average of N1-N3, read-out: ic50 elastase, ave (converted)): 33.4 µM
% inhibition elastase, N1-N3 ([2]; conc 10 ug/ml, individual replicates): 30.14% and 20.28% and 11.87%
inhibition at 10 µg/mL ([2]; conc 10 ug/ml, read-out: % inhibition elastase, ave): 20.8%
% inhibition elastase, N1-N3 ([2]; conc 15 ug/ml, individual replicates): 30.89% and 26.77%
inhibition at 15 µg/mL ([2]; conc 15 ug/ml, individual replicates, read-out: % inhibition elastase, N1-N3): 46.5%
inhibition at 15 µg/mL ([2]; conc 15 ug/ml, read-out: % inhibition elastase, ave): 34.7%
% inhibition elastase, N1-N3 ([2]; conc 20 ug/ml, individual replicates): 99.58% and 99.76%
inhibition at 20 µg/mL ([2]; conc 20 ug/ml, individual replicates, read-out: % inhibition elastase, N1-N3): 99.6%
inhibition at 20 µg/mL ([2]; conc 20 ug/ml, read-out: % inhibition elastase, ave): 99.7%
IC50 [2, 8]: 35 µM and 31.2 µM and 34 µM and 34.8 µM and 31 µM and 33.8 µM
IC50 [2, 9]: 33.2 ± 1.1 µM
inhibition at 10 µM [3, 10]: 52.4%
inhibition at 10 µM [3, 11]: 44.4%
inhibition at 28 µM [3, 10]: 81.8%
inhibition at 28 µM [3, 11]: 78.5%
inhibition at 30 µM ([3]; 30 uM, individual replicates, read-out: % inhibition tyrosinase, replicates 1-3): 81.8%
inhibition at 30 µM ([3]; 30 uM, read-out: % inhibition tyrosinase, ave): 78.5%
inhibition at 34 µM [3, 10]: 86.3%
inhibition at 34 µM [3, 11]: 84.3%
inhibition at 40 µM ([3]; 40 uM, individual replicates, read-out: % inhibition tyrosinase, replicates 1-3): 119%
inhibition at 40 µM ([3]; 40 uM, read-out: % inhibition tyrosinase, ave): 100%
inhibition at 50 µM ([3]; 50 uM, individual replicates, read-out: % inhibition tyrosinase, replicates 1-3): 138%
inhibition at 50 µM ([3]; 50 uM, read-out: % inhibition tyrosinase, ave): 100%
inhibition at 50 µM ([3]; at 50 µmol L^−1, read-out: tyrosinase inhibition): 100%
inhibition at 10 µg/mL ([3]; individual replicates, read-out: % inhibition tyrosinase, N1-N3): 52.4%
inhibition at 10 µg/mL [3, 11]: 44.4%
inhibition at 12.5 µg/mL ([3]; conc 12.5 ug/ml, individual replicates, read-out: % inhibition tyrosinase, N1-N3): 81.8%
inhibition at 12.5 µg/mL ([3]; conc 12.5 ug/ml, read-out: % inhibition tyrosinase, ave): 78.5%
inhibition at 15 µg/mL ([3]; conc 15 ug/ml, individual replicates, read-out: % inhibition tyrosinase, N1-N3): 86.3%
inhibition at 15 µg/mL ([3]; conc 15 ug/ml, read-out: % inhibition tyrosinase, ave): 84.2%

SMILES: O=C(O)/C=C/c1ccc(O)c(O)c1 [Caffeic acid, caffeic acid, reference compound]
% inhibition collagenase, ave ([1]; 140 uM): 30.4%
% inhibition collagenase, ave ([1]; 280 uM): 51.1%
% inhibition collagenase, ave ([1]; 560 uM): 72.8%
% inhibition collagenase, ave ([1]; conc 280 uM (14 mM is the stock sample solution)): 30.37%
% inhibition collagenase, N1-N3 ([1]; conc 14 mM, individual replicates): 37.46% and 22.54% and 31.12%
% inhibition collagenase, ave ([1]; conc 28 mM): 51.14%
% inhibition collagenase, N1-N3 ([1]; conc 28 mM, individual replicates): 50.5% and 50.77% and 52.14%
% inhibition collagenase, ave ([1]; conc 56 mM): 72.77%
% inhibition collagenase, N1-N3 ([1]; conc 56 mM, individual replicates): 71.84% and 74.23% and 72.24%
IC50 [1, 4]: 307 µM and 286 µM and 334 µM
IC50 [1, 5]: 309 ± 13.7 µM

% inhibition elastase, replicates 1-3 ([2]; 10 uM, individual replicates): 25.34% and 30.65%
inhibition at 10 µM ([2]; 10 uM, individual replicates, read-out: % inhibition elastase, replicates 1-3): 26.2%
inhibition at 10 µM ([2]; 10 uM, read-out: % inhibition elastase, ave): 27.4%
% inhibition elastase, replicates 1-3 ([2]; 30 uM, individual replicates): 46.86% and 46.62%
inhibition at 30 µM ([2]; 30 uM, individual replicates, read-out: % inhibition elastase, replicates 1-3): 48.1%
inhibition at 30 µM ([2]; 30 uM, read-out: % inhibition elastase, ave): 47.2%
% inhibition elastase, replicates 1-3 ([2]; 35 uM, individual replicates): 50.36% and 49.93%
inhibition at 35 µM ([2]; 35 uM, individual replicates, read-out: % inhibition elastase, replicates 1-3): 51.1%
inhibition at 35 µM ([2]; 35 uM, read-out: % inhibition elastase, ave): 50.5%
% inhibition elastase, replicates 1-3 ([2]; 40 uM, individual replicates): 53.85% and 54.07%
inhibition at 40 µM ([2]; 40 uM, individual replicates, read-out: % inhibition elastase, replicates 1-3): 53.2%
inhibition at 40 µM ([2]; 40 uM, read-out: % inhibition elastase, ave): 53.7%
% inhibition elastase, ave ([2]; 50 uM): 72.36%
% inhibition elastase, replicates 1-3 ([2]; 50 uM, individual replicates): 74.42% and 69.89%
inhibition at 50 µM ([2]; 50 uM, individual replicates, read-out: % inhibition elastase, replicates 1-3): 72.8%
inhibition at 50 µM ([2]; 50 uM, read-out: % inhibition elastase, ave): 72.4%
% inhibition elastase, ave ([2]; 100 uM): 87.51%
% inhibition elastase, replicates 1-3 ([2]; 100 uM, individual replicates): 89.73% and 85.61%
inhibition at 100 µM ([2]; 100 uM, individual replicates, read-out: % inhibition elastase, replicates 1-3): 87.2%
inhibition at 100 µM ([2]; 100 uM, read-out: % inhibition elastase, ave): 87.5%
inhibition at 100 µM ([2]; at 100 µmol L^−1, read-out: elastase inhibition): 80%
IC50 [2, 8]: 33.2 µM and 35.1 µM and 34.5 µM
IC50 [2, 9]: 34.3 ± 0.6 µM
SMILES: C[C@H]1[C@H](C)CC[C@]2(C(=O)O)CC[C@]3(C)C(=CC[C@@H]4[C@@]5(C)CC[C@H](O)C(C)(C)[C@@H]5CC[C@]43C)[C@H]12 [Ursolic acid, ursolic acid, reference compound]

SMILES: OC[C@H]1O[C@@H](Oc2ccc(O)cc2)[C@H](O)[C@@H](O)[C@@H]1O [β-Arbutin, β-arbutin, reference compound]
inhibition at 12.5 µg/mL ([3]; read-out: % inhibition tyrosinase, N1-N3, conc 12.5 ug/ml, individual replicates): 31.2%
inhibition at 15 µg/mL ([3]; read-out: % inhibition tyrosinase, N1-N3, conc 15 ug/ml, individual replicates): 36.9%
inhibition at 25 µg/mL ([3]; read-out: % inhibition tyrosinase, N1-N3, conc 25 ug/ml, individual replicates): 59.7%
inhibition at 30 µM ([3]; read-out: % inhibition tyrosinase, ave, 30 uM): 18.4%
inhibition at 40 µM ([3]; read-out: % inhibition tyrosinase, ave, 40 uM): 24.9%
inhibition at 46 µM ([3]; read-out: % inhibition tyrosinase, ave, 46 uM): 28.8%
inhibition at 50 µM ([3]; read-out: % inhibition tyrosinase, ave, 50 uM): 34.4%
inhibition at 92 µM ([3]; read-out: % inhibition tyrosinase, ave, 92 uM): 58.8%
inhibition at 12.5 µg/mL ([3]; read-out: % inhibition tyrosinase, ave, conc 12.5 ug/ml): 28.8%
inhibition at 15 µg/mL ([3]; read-out: % inhibition tyrosinase, ave, conc 15 ug/ml): 34.8%
inhibition at 25 µg/mL ([3]; read-out: % inhibition tyrosinase, ave, conc 25 ug/ml): 58.8%
inhibition at 30 µM ([3]; read-out: % inhibition tyrosinase, replicates 1-3, 30 uM, individual replicates): 18.7%
inhibition at 40 µM ([3]; read-out: % inhibition tyrosinase, replicates 1-3, 40 uM, individual replicates): 25.7%
inhibition at 46 µM ([3]; read-out: % inhibition tyrosinase, replicates 1-3, 46 uM, individual replicates): 31.2%
inhibition at 50 µM ([3]; read-out: % inhibition tyrosinase, replicates 1-3, 50 uM, individual replicates): 30.5%
inhibition at 92 µM ([3]; read-out: % inhibition tyrosinase, replicates 1-3, 92 uM, individual replicates): 59.7%
